Measured values published in patent US9884832B2 (priority 2011, dated 2018).
Read-outs that look alike come from different tables or passages of the source.

Biological target: AM2 S31N (serine→asparagine mutation at residue 31 in the M2 protein) (Influenza A virus, UniProt P0DOF5, S31N)
Type: cell-based, influenza virus A/Udorn/72

Structure (SMILES) | S31N OOcyte Inhibition at 100 uM (%) (pH 5.5) | S31N OOcyte Inhibition at 100 uM (%)
CSc1ccccc1-c1ccc(CNC23CC4CC(CC(C4)C2)C3)nc1 [Example 67b, Adamantan-1-yl-[5-(2-methylsulfanyl-phenyl)-pyridin-2-ylmethyl]-amine] | A (key: (A)=31-95%; (B)=0-30%) | 
Cc1csc(CNC23CC4CC(CC(C4)C2)C3)n1 [Example 68b, Adamantan-1-yl-(4-methyl-thiazol-2-ylmethyl)-amine] | A (key: (A)=31-95%; (B)=0-30%) | 
COc1ccccc1-c1ccc(CNC23CC4CC(CC(C4)C2)C3)nc1 [Example 69b, Adamantan-1-yl-[5-(2-methoxy-phenyl)-pyridin-2-ylmethyl]-amine] | A (key: (A)=31-95%; (B)=0-30%) | 
Clc1ccc(CNC23CC4CC(CC(C4)C2)C3)nn1 [Example 70b, Adamantan-1-yl-(6-chloro-pyridazin-3-ylmethyl)-amine] | B (key: (A)=31-95%; (B)=0-30%) | 
c1csc(-c2ccc(CNC34CC5CC(CC(C5)C3)C4)nn2)c1 [Example 71b, Adamantan-1-yl-(6-thiophen-2-yl-pyridazin-3-ylmethyl)-amine] | A (key: (A)=31-95%; (B)=0-30%) | 
c1c[nH]c(CNC23CC4CC(CC(C4)C2)C3)c1 [Example 72a, Adamantan-1-yl-(1H-pyrrol-2-ylmethyl)-amine] |  | B (key: (A)=31-95%; (B)=0-30%)
Clc1ccccc1-c1ccc(CNC23CC4CC(CC(C4)C2)C3)nc1 [Example 72b, Adamantan-1-yl-[5-(2-chloro-phenyl)-pyridin-2-ylmethyl]-amine] | A (key: (A)=31-95%; (B)=0-30%) | 
c1nc(CNC23CC4CC(CC(C4)C2)C3)no1 [Example 73a, Adamantan-1-yl-[1,2,4]oxadiazol-3-ylmethyl-amine] |  | A (key: (A)=31-95%; (B)=0-30%)
C[Si](C)(C)c1ccc(CNC23CC4CC(CC(C4)C2)C3)s1 [Example 75b, Adamantan-1-yl-(5-trimethylsilanyl-thiophen-2-ylmethyl)-amine] | A (key: (A)=31-95%; (B)=0-30%) | 
CSc1ccccc1-c1cnc(CNC23CC4CC(CC(C4)C2)C3)s1 [Example 76b, Adamantan-1-yl-[5-(2-methylsulfanyl-phenyl)-thiazol-2-ylmethyl]-amine] | A (key: (A)=31-95%; (B)=0-30%) | 
c1cc2nc(CNC34CC5CC(CC(C5)C3)C4)sc2s1 [Example 77b, Adamantan-1-yl-thieno[3,2-d]thiazol-2-ylmethyl-amine] | A (key: (A)=31-95%; (B)=0-30%) | 
c1cc2[nH]c(CNC34CC5CC(CC(C5)C3)C4)cc2o1 [Example 78b, Adamantan-1-yl-(4H-furo[3,2-b]pyrrol-5-ylmethyl)-amine] | A (key: (A)=31-95%; (B)=0-30%) | 
COc1ccc2nc(CNC34CC5CC(CC(C5)C3)C4)[nH]c2c1 [Example 79b, Adamantan-1-yl-(6-methoxy-1H-benzoimidazol-2-ylmethyl)-amine] | A (key: (A)=31-95%; (B)=0-30%) | 
c1cnc2[nH]c(CNC34CC5CC(CC(C5)C3)C4)nc2c1 [Example 82b, N-((3H-imidazo[4,5-b]pyridin-2-yl)methyl)adamantan-1-amine] | A (key: (A)=31-95%; (B)=0-30%) | 
CC(C)c1csc(CNC23CC4CC(CC(C4)C2)C3)n1 [Example 84a, N-((4-isopropylthiazol-2-yl)methyl)adamantan-1-amine] |  | B (key: (A)=31-95%; (B)=0-30%)
OC12CC3CC(C1)CC(NCc1noc(-c4ccccc4)n1)(C3)C2 [Example 84b, (1s,3r,5R,7S)-3-(((5-phenyl-1,2,4-oxadiazol-3-yl)methyl)amino)adamantan-1-61] | A (key: (A)=31-95%; (B)=0-30%) | 
CC(C)n1cc(CNC23CC4CC(CC(C4)C2)C3)cn1 [Example 85a, N-((1-isopropyl-1H-pyrazol-4-yl)methyl)adamantan-1-amine] |  | B (key: (A)=31-95%; (B)=0-30%)
CC(C)c1cc(CNC23CC4CC(CC(O)(C4)C2)C3)no1 [Example 85b, (1s,3r,5R,7S)-3-(((5-isopropylisoxazol-3-yl)methyl)amino)adamantan-1-61] | A (key: (A)=31-95%; (B)=0-30%) | 
OC12CC3CC(C1)CC(NCc1noc(C4CCCCC4)n1)(C3)C2 [Example 86b, (1s,3r,5R,7S)-3-(((5-cyclohexyl-1,2,4-oxadiazol-3-yl)methyl)amino)adamantan-1-ol] | A (key: (A)=31-95%; (B)=0-30%) | 
O=C(CNC12CC3CC(CC(C3)C1)C2)c1cccs1 [Example 87b, 2-(adamantan-1-ylamino)-1-(thiophen-2-yl)ethanone] | B (key: (A)=31-95%; (B)=0-30%) | 
C(#Cc1cccs1)CNC12CC3CC(CC(C3)C1)C2 [Example 88b] | A (key: (A)=31-95%; (B)=0-30%) | 
CSc1ccc(CNC23CC4CC(CC(C4)C2)C3)s1 [Example 90a] |  | A (key: (A)=31-95%; (B)=0-30%)

Structure (SMILES) | S31N OOcyte Inhibition at 100 uM (%) (pH 5.5) | S31N OOcyte Inhibition at 100 uM (%)
CSc1ccc(-c2cc(CNC34CC5CC(CC3C5)C4)no2)cc1 [Example 90b, (2R,3as,5S,6as)-N-((5-(4-(methylthio)phenyl)isoxazol-3-yl)methyl)octahydro-2,5-methanopentalen-3a-amine] | A (key: (A)=31-95%; (B)=0-30%) | 
Ic1ccc(CNC23CC4CC(CC(C4)C2)C3)s1 [Example 91a, N-((5-Iodothiophen-2-yl)methyl)adamantan-1-amine] |  | A (key: (A)=31-95%; (B)=0-30%)
CSc1ccc(-c2cc(CNC34CC5CCC(CC(C5)C3)C4)no2)cc1 [Example 91b, (1S,3R,8S)—N-((5-(4-(methylthio)phenyl)isoxazol-3-yl)methyl)tricyclo[4.3.1.13,8]undecan-1-amine] | A (key: (A)=31-95%; (B)=0-30%) | 
Nc1ncc(CNC23CC4CC(CC(C4)C2)C3)s1 [Example 93a, 5-((adamantan-1-ylamino)methyl)thiazol-2-amine] |  | B (key: (A)=31-95%; (B)=0-30%)
Cc1cc(CNC23CC4CC(CC(C4)C2)C3)no1 [Example 95a, N-((5-methylisoxazol-3-yl)methyl)adamantan-1-amine] |  | A (key: (A)=31-95%; (B)=0-30%)
Cc1nc(CNC23CC4CC(CC(C4)C2)C3)no1 [Example 96a, N-((5-methyl-1,2,4-oxadiazol-3-yl)methyl)adamantan-1-amine] |  | A (key: (A)=31-95%; (B)=0-30%)
CC(C)c1nc(CNC23CC4CC(CC(C4)C2)C3)no1 [Example 102a, N-((5-isopropyl-1,2,4-oxadiazol-3-yl)methyl)adamantan-1-amine] |  | A (key: (A)=31-95%; (B)=0-30%)
CC(C)(C)c1nc(CNC23CC4CC(CC(C4)C2)C3)no1 [Example 103a, N-((5-(tert-butyl)-1,2,4-oxadiazol-3-yl)methyl)adamantan-1-amine] |  | A (key: (A)=31-95%; (B)=0-30%)
c1c(CNC23CC4CC(CC(C4)C2)C3)noc1CN1CCOCC1 [Example 106a, N-((5-(morpholinomethyl)isoxazol-3-yl)methyl)adamantan-1-amine] |  | B (key: (A)=31-95%; (B)=0-30%)
c1c(CNC23CC4CC(CC(C4)C2)C3)noc1C1CC1 [Example 107a, N-((5-cyclopropylisoxazol-3-yl)methyl)adamantan-1-amine] |  | A (key: (A)=31-95%; (B)=0-30%)
c1cc(C2CC2)sc1CNC12CC3CC(CC(C3)C1)C2 [Example 108a, N-((5-cyclopropylthiophen-2-yl)methyl)adamantan-1-amine] |  | A (key: (A)=31-95%; (B)=0-30%)
C1CCC(c2nc(CNC34CC5CC(CC(C5)C3)C4)no2)C1 [Example 109a, N-((5-cyclopentyl-1,2,4-oxadiazol-3-yl)methyl)adamantan-1-amine] |  | A (key: (A)=31-95%; (B)=0-30%)
c1ccc(-c2nc(CNC34CC5CC(CC(C5)C3)C4)c[nH]2)cc1 [Example 114a, N-((2-phenyl-1H-imidazol-4-yl)methyl)adamantan-1-amine] |  | B (key: (A)=31-95%; (B)=0-30%)
Fc1ccc(-c2cc(CNC34CC5CC(CC(C5)C3)C4)no2)cc1 [Example 118a, N-((5-(4-fluorophenyl)isoxazol-3-yl)methyl)adamantan-1-amine] |  | A (key: (A)=31-95%; (B)=0-30%)
Clc1ccc(-c2cc(CNC34CC5CC(CC(C5)C3)C4)no2)cc1 [Example 119a, N-((5-(4-chlorophenyl)isoxazol-3-yl)methyl)adamantan-1-amine] |  | A (key: (A)=31-95%; (B)=0-30%)
Cc1ccc(-c2cc(CNC34CC5CC(CC(C5)C3)C4)no2)cc1 [Example 120a, N-((5-(p-tolyl)isoxazol-3-yl)methyl)adamantan-1-amine] |  | A (key: (A)=31-95%; (B)=0-30%)
COc1ccc(-c2cc(CNC34CC5CC(CC(C5)C3)C4)on2)cc1 [Example 122a, N-((3-(4-methoxyphenyl)isoxazol-5-yl)methyl)adamantan-1-amine] |  | A (key: (A)=31-95%; (B)=0-30%)
c1ccc(-c2noc(CNC34CC5CC(CC(C5)C3)C4)n2)cc1 [Example 123a, N-((3-phenyl-1,2,4-oxadiazol-5-yl)methyl)adamantan-1-amine] |  | A (key: (A)=31-95%; (B)=0-30%)
CC(C)(C)c1ccc(-c2noc(CNC34CC5CC(CC(C5)C3)C4)n2)cc1 [Example 124a, N-((3-(4-(tert-butyl)phenyl)-1,2,4-oxadiazol-5-yl)methyl)adamantan-1-amine] |  | B (key: (A)=31-95%; (B)=0-30%)
FC(F)(F)c1cccc(-c2nc(CNC34CC5CC(CC(C5)C3)C4)no2)c1 [Example 125a, N-((5-(3-(trifluoromethyl)phenyl)-1,2,4-oxadiazol-3-yl)methyl)adamantan-1-amine] |  | A (key: (A)=31-95%; (B)=0-30%)
COc1ccc(-c2nc(CNC34CC5CC(CC(C5)C3)C4)no2)cc1 [Example 126a, N-((5-(4-methoxyphenyl)-1,2,4-oxadiazol-3-yl)methyl)adamantan-1-amine] |  | A (key: (A)=31-95%; (B)=0-30%)
